Experimental findings from BindingDB's records for doi:10.1021/jm00087a006 (University of Michigan, 1992) are described below.

Positions of bridges follow the written chain, without caps; N, C: chain ends. Non-standard residues stand in square brackets, D forms with d. Residues, ends and D or L forms follow the SMILES beside them. Phe(4-NO2) = N[C@@H](Cc1ccc([N+](=O)[O-])cc1)C(=O)O; Phe(4-tBu) = CC(C)(C)c1ccc(C[C@H](N)C(=O)O)cc1; Phe(4-Cl) = N[C@@H](Cc1ccc(Cl)cc1)C(=O)O; Phe(3-F) = N[C@@H](Cc1cccc(F)c1)C(=O)O; Phe(4-F) = N[C@@H](Cc1ccc(F)cc1)C(=O)O; Phe(4-Me) = Cc1ccc(C[C@H](N)C(=O)O)cc1; Phe(2-F) = N[C@@H](Cc1ccccc1F)C(=O)O; mTyr = N[C@@H](Cc1cccc(O)c1)C(=O)O; Pen = CC(C)(S)[C@H](N)C(=O)O

A short description of test [1]: Compound was tested for the inhibition of [3H]- [D-Pen2, D-Pen5]-enkephalin (DPDPE) binding to Opioid receptor delta 1 in guinea pig brain homogenates.
Test in test [2]: as above
This is another data set of the same source.

Test [3] in a line: Compound was tested for the inhibition of [3H]- [D-Pen2, D-Pen5]-enkephalin (DPDPE) binding to opioid receptor delta in guinea pig brain homogenates.

`Cc1ccc(C[C@@H]2NC(=O)[C@@H](NC(=O)[C@@H](N)Cc3ccc(O)cc3)CSSC(C)(C)[C@@H](C(=O)O)NC2=O)cc1` (H-YC[Phe(4-Me)][Pen]-OH; disulfide 2-4): the Ki in test [1] worked out at 5.4 nM. `CC1(C)SSC[C@H](NC(=O)[C@@H](N)Cc2ccc(O)cc2)C(=O)N[C@@H](Cc2ccc([N+](=O)[O-])cc2)C(=O)N[C@@H]1C(=O)O` (H-YC[Phe(4-NO2)][Pen]-OH; disulfide 2-4) returned a Ki in test [2] of 1.7 nM.

In test [1], `CC1(C)SSC[C@H](NC(=O)[C@@H](N)Cc2ccc(O)cc2)C(=O)N[C@@H](Cc2ccc(Cl)cc2)C(=O)N[C@@H]1C(=O)O` (H-YC[Phe(4-Cl)][Pen]-OH; disulfide 2-4) yielded a Ki of 0.98 nM. In test [2], `CC1(C)SSC[C@H](NC(=O)[C@@H](N)Cc2ccc(O)cc2)C(=O)N[C@@H](Cc2ccc(F)cc2)C(=O)N[C@@H]1C(=O)O` (H-YC[Phe(4-F)][Pen]-OH; disulfide 2-4) displayed a Ki of 1.1 nM. Turning to `CC1(C)SSC[C@H](NC(=O)[C@@H](N)Cc2ccc(O)cc2)C(=O)N[C@@H](Cc2cccc(O)c2)C(=O)N[C@@H]1C(=O)O` (H-YC[mTyr][Pen]-OH; disulfide 2-4), the Ki worked out at 148 nM in test [2] and 9.3 nM in test [3]. Consider `CC1(C)SSC[C@H](NC(=O)[C@@H](N)Cc2ccc(O)cc2)C(=O)N[C@@H](Cc2ccccc2F)C(=O)N[C@@H]1C(=O)O` (H-YC[Phe(2-F)][Pen]-OH; disulfide 2-4), for which the Ki in test [1] is 3.3 nM.

For `CC(C)(C)c1ccc(C[C@@H]2NC(=O)[C@@H](NC(=O)[C@@H](N)Cc3ccc(O)cc3)CSSC(C)(C)[C@@H](C(=O)O)NC2=O)cc1` (H-YC[Phe(4-tBu)][Pen]-OH; disulfide 2-4), the values for the Ki in test [2] and in test [3] were 648 nM and 37 nM, respectively. In the case of `CC1(C)SSC[C@H](NC(=O)[C@@H](N)Cc2ccc(O)cc2)C(=O)N[C@@H](Cc2cccc(F)c2)C(=O)N[C@@H]1C(=O)O` (H-YC[Phe(3-F)][Pen]-OH; disulfide 2-4), the affinity in test [1], expressed as Ki, was 2.9 nM. Regarding `CC1(C)SSC[C@H](NC(=O)[C@@H](N)Cc2ccc(O)cc2)C(=O)N[C@@H](Cc2ccc(O)cc2)C(=O)N[C@@H]1C(=O)O` (H-YCY[Pen]-OH; disulfide 2-4), the Ki in test [2] was 26 nM.

By Ki is commonly meant the dissociation constant of the complex between target and ligand, obtained from inhibition or displacement. Low readings indicate tighter binding, high ones weaker binding.
